Reference: patent US20260138970A1, “MODULATORS OF THE CALCIUM SIGNALING CASCADE” (FONDAZIONE TELETHON ETS, priority 2022, published 2026)

What was measured:
FRT cells = assay: Fluo-4 Ca2+ mobilization assay in parental (null) FRT cells; type: cell-based, rat; details: for direct Ca2+ mobilization in the absence of UTP (Fluo-4): acute addition, Eact 5 μM, FIG. 2B; for direct Ca2+ mobilization in the absence of UTP (Fluo-4) / potentiation of UTP-dependent Ca2+ increase (Fluo-4): compounds 10 μM; for potentiation of UTP-dependent Ca2+ increase (Fluo-4): FIG. 2A
Protocol: Experiments were performed using the microplate reader described for the HS-YFP assay. FRT and HEK293 cells were cultured until confluence in 96-well microplates (3603, Corning). Cells were washed 2 times with PBS (150 μl/wash) and then loaded for 1 h at 37° C. with 5 μM Fluo-4/AM (Thermo Fisher Scientific; catalog number: F23917) in PBS containing 10 mM glucose, 0.5 mM sulfinpyrazone, and 1% fetal bovine serum. […] Each well was assayed individually. Fluo-4 fluorescence (500 nm excitation, 535 nm emission) was detected every 200 ms for 16-40 s. Two seconds after the start of fluorescence recording, the reader automatically injected 165 μl of a modified PBS containing 136 mM KCl instead of NaCl. This solution also contained 10 mM glucose, 0.5 mM sulfinpyrazone, and UTP or SLIGR-NH2 (CAS #171436-38-7) at a final concentration that depended on the specific cell type. For UTP we used: 0.25 μM for FRT; 1 μM for HEKR2; 5 μM for HEK3XKO, HEKR1, and HEKR3. For SLIGR-NH2 we used: 10 μM for HEKR1; 4 μM for HEKR2. These concentrations were chosen to elicit ˜20% of maximal effect based on UTP and SLIGR-NH2 dose-response relationships. The lower agonist concentrations used for HEKR2 cells, compared to HEKR1 cells, are consistent with the higher affinity of ITPR2 for IP3 (16). The Fluo-4 fluorescence increase was quantified using a procedure compiled in Microsoft Excel after background subtraction and normalization for the initial value measured before UTP addition.
In a further experimental setting, experiments were performed using as above the FLUOstar Omega (BMG Labtech, Offenburg, Germany) microplate reader equipped with syringe pumps and optical excitation/emission filters optimized for yellow fluorescent protein (YFP) fluorescence (ET500/20× and ET535/30m, respectively; Chroma Technology Corporation). FRT and Chem-1 cells were cultured until confluence in 96-well microplates (cc3603, Corning). Cells were washed 2 times with PBS (150 μl/wash) and then loaded for 1 h at 37° C. with 5 μM Fluo-4/AM (Thermo Fisher Scientific; catalog number: F23917) in PBS containing 10 mM glucose, 0.5 mM sulfinpyrazone, and 1% fetal bovine serum. […] Each well was assayed individually. Fluo-4 fluorescence (500 nm excitation, 535 nm emission) was detected every 200 ms for 16-40 s. Two seconds after the start of fluorescence recording, the reader automatically injected 165 μl of a modified PBS containing 136 mM KCl instead of NaCl. This solution also contained, in addition to 10 mM glucose and 0.5 mM sulfinpyrazone, the following agonists: UTP (U6625, Merck) or CCK8s (23371, Cayman Chemical). The Fluo-4 fluorescence increase was quantified using a procedure compiled in Microsoft Excel after background subtraction and normalization for the initial value measured before UTP or CCK8s addition.

PLC = PLC assay in FRT cells expressing PH-PLC-GFP sensor; type: cell-based; details: compounds 10 μM, cytosolic GFP increase, FIG. 3; for potentiation of UTP effect on PLC activity, lower UTP concentration: UTP 0.25 μM; for potentiation of UTP effect on PLC activity, higher UTP concentration: UTP 100 μM
Protocol: FRT cells with stable expression of PLC6-PH-GFP, generated in the laboratory of inventors, were cultured up to subconfluent condition in p-Plate96 microplates (Ibidi). Each well of a 96-well microplate was washed 3 times, leaving 125 μl of phosphate-buffered saline (PBS) containing compounds at 10 μM final concentration or vehicle. After 20 min of incubation at 37° C., microplate was moved on the stage of an inverted microscope equipped with GFP excitation/emission filters, 40×oil immersion objective (Olympus, Segrate, Italy), Lambda DG4 illumination system (Sutter Instrument Co., Novato, CA, USA), Prime cmos camera (Photometrics, Tucson, AZ, USA) and MetaMorph imaging acquisition software (Molecular Devices, Sunnyvale, CA, USA). Time-lapse experiments were carried out with 50 ms exposure time, 20 frame/s rate, and 2.4 min total duration. After 20 s and 90 s, UTP 0.25 μM and 100 μM (final concentrations) was respectively added. Analysis was performed with MetaMorph software, by quantifying GFP fluorescence cytoplasmic accumulation in manually selected single cell regions of interest (ROI). After background subtraction, fluorescence recordings were normalized for the initial value.

T267M ITPR1 = target: T1, T267M ITPR1 (Homo sapiens, UniProt Q14643, T267M); assay: Fluo-4 Ca2+ assay, UTP, HEK293 cells with inducible T267M ITPR1; type: cell-based; details: UTP 5 μM; compound 10 μM; tetracycline-induced; FIG. 6B-C
T1 construct: expressed in transfected cells
T1 sequence (Q14643 whole entry T267M): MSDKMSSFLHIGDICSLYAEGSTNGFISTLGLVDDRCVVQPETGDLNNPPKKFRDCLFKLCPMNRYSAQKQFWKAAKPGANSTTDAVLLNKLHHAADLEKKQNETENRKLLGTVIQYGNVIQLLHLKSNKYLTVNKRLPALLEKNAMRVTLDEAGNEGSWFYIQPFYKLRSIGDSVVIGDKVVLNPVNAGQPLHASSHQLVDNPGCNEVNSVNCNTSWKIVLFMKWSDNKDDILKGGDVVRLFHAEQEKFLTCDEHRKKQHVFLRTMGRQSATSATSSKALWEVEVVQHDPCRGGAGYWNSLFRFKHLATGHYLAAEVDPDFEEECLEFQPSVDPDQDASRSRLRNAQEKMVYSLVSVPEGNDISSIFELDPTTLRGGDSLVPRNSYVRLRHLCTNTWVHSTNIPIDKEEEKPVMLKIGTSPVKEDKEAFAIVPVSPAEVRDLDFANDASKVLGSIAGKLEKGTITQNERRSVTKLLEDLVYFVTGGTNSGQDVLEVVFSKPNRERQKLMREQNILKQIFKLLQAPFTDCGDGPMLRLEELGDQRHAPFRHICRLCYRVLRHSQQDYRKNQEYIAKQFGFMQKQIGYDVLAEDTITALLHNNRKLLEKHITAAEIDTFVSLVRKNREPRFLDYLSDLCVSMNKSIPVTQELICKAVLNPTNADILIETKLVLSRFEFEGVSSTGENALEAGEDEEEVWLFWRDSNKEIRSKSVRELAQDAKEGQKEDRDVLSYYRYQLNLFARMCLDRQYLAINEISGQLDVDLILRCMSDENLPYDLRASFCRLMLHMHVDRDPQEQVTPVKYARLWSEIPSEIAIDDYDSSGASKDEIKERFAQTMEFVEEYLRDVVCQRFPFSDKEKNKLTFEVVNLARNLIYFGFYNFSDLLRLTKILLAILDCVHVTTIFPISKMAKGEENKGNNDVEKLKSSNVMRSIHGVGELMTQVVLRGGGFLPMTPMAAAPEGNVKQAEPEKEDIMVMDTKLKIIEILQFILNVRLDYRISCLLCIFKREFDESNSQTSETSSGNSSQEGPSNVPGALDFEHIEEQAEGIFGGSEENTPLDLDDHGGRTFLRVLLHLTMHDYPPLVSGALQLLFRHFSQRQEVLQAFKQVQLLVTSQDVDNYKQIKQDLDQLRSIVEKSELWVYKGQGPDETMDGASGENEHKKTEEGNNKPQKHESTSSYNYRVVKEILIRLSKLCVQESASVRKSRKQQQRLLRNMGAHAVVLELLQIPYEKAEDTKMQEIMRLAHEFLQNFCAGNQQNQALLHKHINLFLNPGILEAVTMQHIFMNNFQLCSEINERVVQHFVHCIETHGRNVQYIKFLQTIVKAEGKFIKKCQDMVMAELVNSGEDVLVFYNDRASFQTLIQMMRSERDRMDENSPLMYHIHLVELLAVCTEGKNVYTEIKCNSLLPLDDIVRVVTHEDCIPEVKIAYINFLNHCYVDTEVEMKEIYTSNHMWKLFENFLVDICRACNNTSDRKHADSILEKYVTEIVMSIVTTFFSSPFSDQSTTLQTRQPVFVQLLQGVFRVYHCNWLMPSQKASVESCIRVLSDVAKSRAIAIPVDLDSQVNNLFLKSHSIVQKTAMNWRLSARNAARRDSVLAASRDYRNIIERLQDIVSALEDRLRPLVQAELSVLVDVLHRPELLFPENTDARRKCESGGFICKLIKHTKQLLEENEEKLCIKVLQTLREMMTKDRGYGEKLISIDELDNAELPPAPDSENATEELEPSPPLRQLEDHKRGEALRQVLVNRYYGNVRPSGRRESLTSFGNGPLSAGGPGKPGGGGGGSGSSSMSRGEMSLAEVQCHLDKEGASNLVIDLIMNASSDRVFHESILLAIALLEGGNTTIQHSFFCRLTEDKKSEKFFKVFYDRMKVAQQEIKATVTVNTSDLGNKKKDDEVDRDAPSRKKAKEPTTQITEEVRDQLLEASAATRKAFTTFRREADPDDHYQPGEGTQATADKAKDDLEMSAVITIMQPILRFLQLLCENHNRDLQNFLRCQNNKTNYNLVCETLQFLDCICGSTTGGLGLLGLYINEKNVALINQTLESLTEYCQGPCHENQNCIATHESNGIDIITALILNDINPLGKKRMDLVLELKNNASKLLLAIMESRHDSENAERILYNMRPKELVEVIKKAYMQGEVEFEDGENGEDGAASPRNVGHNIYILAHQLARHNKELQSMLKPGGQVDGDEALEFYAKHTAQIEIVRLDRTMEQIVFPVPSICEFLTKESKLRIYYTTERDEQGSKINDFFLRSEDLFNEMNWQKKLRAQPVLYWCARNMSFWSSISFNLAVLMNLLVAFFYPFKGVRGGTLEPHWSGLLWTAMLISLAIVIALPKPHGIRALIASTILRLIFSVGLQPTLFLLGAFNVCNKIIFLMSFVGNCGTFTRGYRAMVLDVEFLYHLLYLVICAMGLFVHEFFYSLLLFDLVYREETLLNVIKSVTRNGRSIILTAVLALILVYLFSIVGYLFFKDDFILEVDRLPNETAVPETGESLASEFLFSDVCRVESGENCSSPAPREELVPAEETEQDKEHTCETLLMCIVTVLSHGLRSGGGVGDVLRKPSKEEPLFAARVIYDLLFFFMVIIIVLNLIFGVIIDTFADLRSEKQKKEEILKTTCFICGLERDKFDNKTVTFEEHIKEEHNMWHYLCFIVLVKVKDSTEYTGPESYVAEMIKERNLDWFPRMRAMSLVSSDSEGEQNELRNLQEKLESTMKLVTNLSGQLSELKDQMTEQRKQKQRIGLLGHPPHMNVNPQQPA
Protocol: HEK293 cells stably transfected with tetracycline-inducible expression of wild type or mutant (R269W or T267M) ITPR1, kindly provided by Prof. S. R. Wayne Chen (University of Calgary; ref. 14), were cultured in a mixture of Dulbecco's Modified Eagle Medium (DMEM, high glucose version) and Ham's F12 (1:1) and supplemented with 10% fetal bovine serum, 2 mM L-glutamine, 100 U/ml penicillin and 100 μg/ml streptomycin. Cells were selected with 0.5 mg/ml hygromycin B and induced with 1 μg/ml tetracycline.
Experiments were performed using the microplate reader described for the HS-YFP assay. FRT and HEK293 cells were cultured until confluence in 96-well microplates (3603, Corning). Cells were washed 2 times with PBS (150 μl/wash) and then loaded for 1 h at 37° C. with 5 μM Fluo-4/AM (Thermo Fisher Scientific; catalog number: F23917) in PBS containing 10 mM glucose, 0.5 mM sulfinpyrazone, and 1% fetal bovine serum. After loading, cells were washed 2 times with PBS-glucose-sulfinpyrazone (150 μl/wash) and incubated for 20 min at 37° C. with 60 μl of PBS plus 10 mM glucose and 0.5 mM sulfinpyrazone containing compounds of interest at 10 μM final concentration or vehicle. Each well was assayed individually. Fluo-4 fluorescence (500 nm excitation, 535 nm emission) was detected every 200 ms for 16-40 s. Two seconds after the start of fluorescence recording, the reader automatically injected 165 μl of a modified PBS containing 136 mM KCl instead of NaCl. This solution also contained 10 mM glucose, 0.5 mM sulfinpyrazone, and UTP or SLIGR-NH2 (CAS #171436-38-7) at a final concentration that depended on the specific cell type. For UTP we used: 0.25 μM for FRT; 1 μM for HEKR2; 5 μM for HEK3XKO, HEKR1, and HEKR3. For SLIGR-NH2 we used: 10 μM for HEKR1; 4 μM for HEKR2. These concentrations were chosen to elicit ˜20% of maximal effect based on UTP and SLIGR-NH2 dose-response relationships. […] The Fluo-4 fluorescence increase was quantified using a procedure compiled in Microsoft Excel after background subtraction and normalization for the initial value measured before UTP addition.

Structure (SMILES) | direct Ca2+ mobilization in the absence of UTP (Fluo-4) (FRT cells) | potentiation of UTP-dependent Ca2+ increase (Fluo-4) (FRT cells; UTP 0.25 μM) | potentiation of UTP effect on PLC activity, lower UTP concentration (PLC) | potentiation of UTP effect on PLC activity, higher UTP concentration (PLC) | potentiation of Ca2+ mobilization elicited by UTP, T267M mutant (T267M ITPR1) | potentiation of the Ca2+ increase elicited by UTP, multiple concentrations (FRT cells; UTP 0.25 μM, compounds 1-80 μM, vs vehicle (DMSO), FIG. 8)
OCc1ccccc1CN(Cc1ccnc(N2CCCC2)n1)c1ccc(F)cc1 [ARN4550, [2-[[4-Fluoro-N-[(2-pyrrolidin-1-ylpyrimidin-4-yl)methyl]anilino]methyl]phenyl]methanol] | No effect | able to potentiate | significantly potentiated | effective | also effective although less than ARN11391 | –
CCc1cc(-c2cc(NCCCOc3ccccc3C)nc(N)n2)n(C)n1 [ARN7149, 6-(3-Ethyl-1-methyl-1H-pyrazol-5-yl)-N^4-(3-(o-tolyloxy)propyl)pyrimidine-2,4-diamine] | No effect | able to potentiate | significantly potentiated | effective | also effective although less than ARN11391 | –
CCn1nc2c(c1C(=O)Nc1ccccc1OCC1CCCCO1)CCCC2 (stereo not drawn) [ARN11391, 2-Ethyl-N-[2-(tetrahydropyran-2-ylmethoxy)phenyl]-4,5,6,7-tetrahydroindazole-3-carboxamide] | No effect | able to potentiate | – | effective | marked potentiation | dose-dependent potentiation
